The record followed here is ChEMBL document CHEMBL3046186, “Identification of ZINC02765569: a potent inhibitor of PTP1B by vHTS” (2013).

Test [1] concerns Rattus norvegicus. The test can be described thus: Antihyperglycemic activity in sucrose-loaded Rattus norvegicus Wistar albino (rat) diabetic model assessed as glucose reduction at 30 mg/kg measured at 24 hr relative to control. Set-up: scale not given: the % may be the effect or the level left. In kind it is functional.
Test [2] has as its system Rattus norvegicus. The test can be described thus: Antihyperglycemic activity in sucrose-loaded Rattus norvegicus Wistar albino (rat) diabetic model assessed as glucose reduction at 30 mg/kg measured at 5 hr relative to control. In kind it is functional. Set-up: scale not given: the % may be the effect or the level left.
Test [3] deals with Rattus norvegicus. The test can be described thus: Antihyperglycemic activity in sucrose-challenged streptozotocin-induced Rattus norvegicus Wistar albino (rat) diabetic model assessed as glucose reduction at 30 mg/kg measured at 24 hr relative to control. In kind it is functional. Set-up: scale not given: the % may be the effect or the level left.
Test [4] relates to Rattus norvegicus. The test can be described thus: Antihyperglycemic activity in sucrose-challenged streptozotocin-induced Rattus norvegicus Wistar albino (rat) diabetic model assessed as glucose reduction at 30 mg/kg measured at 5 hr relative to control. Format: functional. Details: scale not given: the % may be the effect or the level left.
In test [5] the target is T1, Tyrosine-protein phosphatase non-receptor type 1 (Homo sapiens) (UniProt P18031).
T1 sequence (whole entry): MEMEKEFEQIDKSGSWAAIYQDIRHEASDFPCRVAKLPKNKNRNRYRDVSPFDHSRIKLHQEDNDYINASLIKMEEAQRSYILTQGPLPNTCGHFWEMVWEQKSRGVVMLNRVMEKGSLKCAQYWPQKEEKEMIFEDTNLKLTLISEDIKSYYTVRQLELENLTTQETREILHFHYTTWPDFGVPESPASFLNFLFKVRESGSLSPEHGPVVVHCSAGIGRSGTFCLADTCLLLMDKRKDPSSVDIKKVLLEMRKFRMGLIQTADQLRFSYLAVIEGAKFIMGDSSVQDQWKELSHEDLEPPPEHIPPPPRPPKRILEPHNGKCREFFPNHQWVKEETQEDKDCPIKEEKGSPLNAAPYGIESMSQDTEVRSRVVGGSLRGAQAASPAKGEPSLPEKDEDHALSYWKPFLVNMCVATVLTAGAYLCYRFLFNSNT
The test can be described thus: Inhibition of Homo sapiens (human) recombinant PTP1B at 10 uM relative to control.

The target of test [6] is T2, Tyrosine-protein phosphatase non-receptor type 1 (Rattus norvegicus) (UniProt P20417).
T2 sequence (whole entry): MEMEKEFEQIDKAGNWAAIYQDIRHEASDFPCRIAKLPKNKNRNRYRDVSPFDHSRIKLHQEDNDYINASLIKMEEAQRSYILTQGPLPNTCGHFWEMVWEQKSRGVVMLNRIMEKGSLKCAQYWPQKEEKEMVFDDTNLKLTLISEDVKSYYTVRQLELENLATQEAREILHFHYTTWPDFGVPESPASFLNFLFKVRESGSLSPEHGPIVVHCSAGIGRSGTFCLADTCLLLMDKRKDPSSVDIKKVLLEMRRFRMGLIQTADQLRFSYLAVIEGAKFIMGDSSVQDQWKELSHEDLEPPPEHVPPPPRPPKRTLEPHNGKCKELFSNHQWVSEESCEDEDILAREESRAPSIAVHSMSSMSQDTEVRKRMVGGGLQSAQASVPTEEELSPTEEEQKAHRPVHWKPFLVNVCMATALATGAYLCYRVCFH
The test can be described thus: Inhibition of PTP1B in Rattus norvegicus (rat) L6 cells assessed as cellular 2-deoxy-D-[U-14C]glucose uptake at 500 uM after 18 hr relative to control. Format: cell-based.

Test [7] deals with T2, Tyrosine-protein phosphatase non-receptor type 1 (Rattus norvegicus). Description: Ratio of metformin activity to compound activity for inhibition of PTP1B in Rattus norvegicus (rat) L6 cells. Format: cell-based.
Test [8] shares this target. Description: Ratio of rosiglitazone activity to compound activity for inhibition of PTP1B in Rattus norvegicus (rat) L6 cells. Format: cell-based.
For test [9] the target is unchanged. The test can be described thus: Inhibition of PTP1B in Rattus norvegicus (rat) L6 cells assessed as cellular 2-deoxy-D-[U-14C]glucose uptake at 10 to 50 uM after 18 hr relative to control. In kind it is cell-based.

The structures appear in SMILES notation.

Consider `CN(CCOc1ccc(CC2SC(=O)NC2=O)cc1)c1ccccn1` (stereo not drawn) [ROSIGLITAZONE], for which the Activity in the test with Rattus norvegicus [1] is 26%; in the test on Rattus norvegicus [2] it was 23%; in the test on Rattus norvegicus [3], 24%; in the test with Rattus norvegicus [4] it was 21%.
As usually defined, the inhibition is the drop in the measured response relative to a control, in per cent. For `Cc1ccc(C(=O)Nc2ccc(S(=O)(=O)O)c3cc(S(=O)(=O)O)cc(S(=O)(=O)O)c23)cc1NC(=O)c1cccc(NC(=O)Nc2cccc(C(=O)Nc3cc(C(=O)Nc4ccc(S(=O)(=O)O)c5cc(S(=O)(=O)O)cc(S(=O)(=O)O)c45)ccc3C)c2)c1`, the inhibition in test [5] was found to be 20%.
`CN(C)C(=N)NC(=N)N` [METFORMIN]: the Activity with Rattus norvegicus [1] turned out to be 17%; in the test with Rattus norvegicus [2], 13%; in the test on Rattus norvegicus [3], 17%; with Rattus norvegicus [4], 18%. Besides, the inhibition in [6] was determined as 30.2%.
In the case of `O=C(CSc1nc2ccccc2[nH]1)Nc1cccc(C(=O)O)c1`, the Activity was 33% with Rattus norvegicus [1], 32% with Rattus norvegicus [2], 45% in the test on Rattus norvegicus [3] and 48% with Rattus norvegicus [4]. Further, the Ratio in [7] stood at 50; in test [8] it was 10. Moreover, the inhibition was found to be 24.2% in test [5] and 18.5% in test [9].
